Test results as given in patent US20250144067A1, “PERSONALIZED STARVATION THERAPY FOR CANCER” (Faeth Therapeutics, Inc., priority 2021, published 2025).
Structures can show the parent of a compound that is named as a salt. Where two headings read alike, the source gives them in different places.

Legend:
[1] = tested on: NCI-H292 lung cancer cells; assay: FDA drug screening, complete media vs cholesterol-free media without statin (TABLE 1); format: cell-based, human
[2] = tested on: NCI-H292 lung cancer cells; assay: FDA drug screening, complete media vs cholesterol-free media with simvastatin (TABLE 2); format: cell-based, human
[3] = Complete minus Cholesterol-free, […]
[4] = NCI-H292 cells, cholesterol-free media without statin
[5] = NCI-H292 cells, complete media, […]
[6] = complete media minus cholesterol-free media + simvastatin, […]
[7] = complete vs cholesterol-free media, greater than 0 enhanced anti-cancer activity, about 0 neutral, below 0 antagonists
[8] = NCI-H292 cells, drug in cholesterol-free media with simvastatin 0.04 μM
[9] = NCI-H292 cells, drug in complete media
[10] = complete media vs cholesterol-free media + simvastatin (0.04 μM), >0 enhanced anti-cancer activity, about 0 neutral, <0 antagonist
[11] = Complete minus Cholesterol-free, greater than 0 enhanced anti-cancer activity, about 0 neutral, below 0 antagonist
[12] = NCI-H292 cells, FDA drug library screen, cholesterol-free media without statin
[13] = NCI-H292 cells, FDA drug library screen, complete media
[14] = NCI-H292 cells, FDA drug library screen, cholesterol-free media with simvastatin 0.04 μM
[15] = complete media minus cholesterol-free media + simvastatin, >0 enhanced anti-cancer activity, about 0 neutral, <0 antagonist
[16] = Complete minus Cholesterol-free, >0 enhanced anti-cancer activity, about 0 neutral, <0 antagonist
[17] = NCI-H292 cells, cholesterol-free media with simvastatin 0.04 μM, cell growth value in FDA drug screen
[18] = NCI-H292 cells, complete media, cell growth value in FDA drug screen
[19] = Complete minus Cholesterol-free, greater than 0 enhanced anti-cancer activity, about 0 neutral, below 0 antagonists
[20] = NCI-H292 cells in cholesterol-free media without statin
[21] = NCI-H292 cells in complete media
[22] = NCI-H292 cells, cholesterol-free media without statin, FDA drug library screen
[23] = NCI-H292 cells, complete media, FDA drug library screen
[24] = complete vs cholesterol-free media, >0 enhanced anti-cancer activity, about 0 neutral, <0 antagonist
[25] = NCI-H292 cells, FDA library drug in cholesterol-free media with simvastatin 0.04 μM
[26] = NCI-H292 cells, FDA library drug in complete media
[27] = complete vs cholesterol-free media, […]
[28] = NCI-H292 cells, cholesterol-free media with simvastatin 0.04 μM, FDA drug library screen (TABLE 2)
[29] = NCI-H292 cells, complete media, FDA drug library screen (TABLE 2)
[30] = complete media minus cholesterol-free media + simvastatin (0.04 μM), >0 enhanced anti-cancer activity, about 0 neutral, <0 antagonist

OC(c1ccccc1)(c1ccccc1)C12CC[N+](CCOCc3ccccc3)(CC1)CC2.[Br-] [Umeclidinium (bromide)]
Cholesterol-free [1]: 0.5848
Complete [1]: 0.7554
Difference [1]: 0.17
Cholesterol-free media + simvastatin (0.04 μM) [2]: 1.336
Complete Media [2]: 0.9344
Difference [2]: −0.40

Carbasalate calcium
Difference [1, 3]: −0.21
Cholesterol-free [1, 4]: 1.087
Complete ([1]; NCI-H292 cells, complete media): 0.8754
Complete Media [2, 5]: 1.129
Difference [2, 6]: 0.02

Cc1cc(=O)[nH]c(=S)[nH]1 [Methylthiouracil]
Cholesterol-free [1, 4]: 1.055
Complete ([1]; NCI-H292 cells, complete media): 0.7083
Difference [1, 7]: −0.35
Cholesterol-free media + simvastatin (0.04 μM) [2, 8]: 1.089
Complete Media [2, 9]: 0.882
Difference [2, 10]: −0.21

C[C@]12CC[C@@H]3c4ccc(O)cc4CC[C@H]3[C@@H]1CC[C@H]2O [Alpha-Estradiol]
Difference [1, 11]: −0.14
Cholesterol-free [1, 12]: 0.998
Complete [1, 13]: 0.8561
Cholesterol-free media + simvastatin (0.04 μM) [2, 14]: 1.11
Complete Media [2, 13]: 1.408
Difference [2, 15]: 0.30

Cn1c([N+](=O)[O-])cnc1COC(N)=O [Ronidazole]
Cholesterol-free [1, 4]: 1.54
Complete ([1]; NCI-H292 cells, complete media): 1.069
Difference [1, 7]: −0.47
Cholesterol-free media + simvastatin (0.04 μM) [2, 14]: 0.9748
Complete Media [2, 13]: 1.335
Difference [2, 15]: 0.36

Cc1ccc(C(C)C)c(O)c1 [Thymol]
Cholesterol-free [1, 4]: 1.354
Complete ([1]; NCI-H292 cells, complete media): 1.041
Difference [1, 7]: −0.31
Cholesterol-free media + simvastatin (0.04 μM) [2, 8]: 1.184
Complete Media [2, 9]: 0.956
Difference [2, 10]: −0.23

O=C(O)c1cccnc1 [Niacin]
Difference [1, 16]: −0.27
Cholesterol-free [1, 4]: 1.266
Complete ([1]; NCI-H292 cells, complete media): 0.9994
Cholesterol-free media + simvastatin (0.04 μM) [2, 17]: 1.244
Complete Media [2, 18]: 1.362
Difference [2, 15]: 0.12

CCC(=O)O[C@]1(C(=O)SCF)[C@H](C)C[C@H]2[C@@H]3C[C@H](F)C4=CC(=O)C=C[C@]4(C)[C@@]3(F)[C@@H](O)C[C@@]21C [Fluticasone (propionate)]
Difference [1, 19]: −0.60
Cholesterol-free [1, 20]: 1.466
Complete [1, 21]: 0.8611
Cholesterol-free media + simvastatin (0.04 μM) [2, 14]: 0.7423
Complete Media [2, 13]: 0.6072
Difference [2, 10]: −0.14

CC(C)(S)[C@@H](N)C(=O)O [Penicillamine]
Difference [1, 19]: −0.55
Cholesterol-free [1, 20]: 1.556
Complete [1, 21]: 1.005
Cholesterol-free media + simvastatin (0.04 μM) [2, 8]: 1.252
Complete Media [2, 9]: 1.083
Difference [2, 10]: −0.17

O=C(OCC(O)CO)c1ccccc1Nc1ccnc2cc(Cl)ccc12 (stereo not shown) [Glafenine (hydrochloride)]
Cholesterol-free [1]: 1.367
Complete [1]: 1.255
Difference [1]: −0.11
Cholesterol-free media + simvastatin (0.04 μM) [2]: 0.8957
Complete Media [2]: 0.9245
Difference [2]: 0.03

CCC(CC)O[C@@H]1C=C(C(=O)O)C[C@H](N)[C@H]1NC(C)=O [Oseltamivir acid]
Cholesterol-free [1, 4]: 1.419
Complete ([1]; NCI-H292 cells, complete media): 0.9754
Difference [1, 7]: −0.44
Cholesterol-free media + simvastatin (0.04 μM) [2, 17]: 0.944
Complete Media [2, 18]: 1.053
Difference [2, 15]: 0.11

NCCCC(O)(P(=O)(O)O)P(=O)(O)O [Alendronate (sodium hydrate)]
Cholesterol-free [1, 22]: 0.1249
Complete [1, 23]: 0.2776
Difference [1, 24]: 0.15
Cholesterol-free media + simvastatin (0.04 μM) [2, 14]: 0.388
Difference [2, 15]: 0.78

NC(N)=O [Urea]
Difference [1, 16]: −0.20
Cholesterol-free [1, 4]: 1.334
Complete ([1]; NCI-H292 cells, complete media): 1.138
Cholesterol-free media + simvastatin (0.04 μM) [2, 25]: 1.928
Complete Media [2, 26]: 1.641
Difference [2, 10]: −0.29

Dabrafenib (Mesylate)
Cholesterol-free [1, 22]: 0.4044
Complete [1, 23]: 0.6337
Difference [1, 27]: 0.23
Cholesterol-free media + simvastatin (0.04 μM) [2, 14]: 0.4336
Complete Media [2, 13]: 0.6478
Difference [2, 6]: 0.21

COC(=O)[C@H]1[C@H]2C[C@@H]3c4[nH]c5cc(OC)ccc5c4CCN3C[C@H]2C[C@@H](OC(=O)c2cc(OC)c(OC)c(OC)c2)[C@@H]1OC [Reserpine (hydrochloride)]
Cholesterol-free [1, 4]: 1.178
Complete ([1]; NCI-H292 cells, complete media): 0.8568
Difference [1, 7]: −0.32
Cholesterol-free media + simvastatin (0.04 μM) [2, 8]: 1.074
Complete Media [2, 9]: 0.834
Difference [2, 10]: −0.24

COc1ccc2cc(CCC(C)=O)ccc2c1 [Nabumetone]
Difference [1, 11]: −0.18
Cholesterol-free [1, 12]: 1.034
Complete [1, 13]: 0.8533
Cholesterol-free media + simvastatin (0.04 μM) [2, 25]: 1.525
Complete Media [2, 26]: 1.112
Difference [2, 10]: −0.41

Nc1nc(O)c2ncn(COC(CO)CO)c2n1 [Ganciclovir]
Difference [1, 16]: 0.07
Cholesterol-free [1, 22]: 0.8931
Complete [1, 23]: 0.9638
Cholesterol-free media + simvastatin (0.04 μM) [2, 28]: 0.88
Complete Media [2, 29]: 0.8599
Difference [2, 30]: −0.02

C[S+](CC[C@H](N)C(=O)[O-])C[C@H]1O[C@@H](n2cnc3c(N)ncnc32)[C@H](O)[C@@H]1O.Cc1ccc(S(=O)(=O)O)cc1.O=S(=O)(O)O.O=S(=O)(O)O (stereo partly shown)
Difference [1, 11]: −0.11
Cholesterol-free [1, 12]: 1.112
Complete [1, 13]: 1.004
Cholesterol-free media + simvastatin (0.04 μM) [2, 14]: 1.19
Complete Media [2, 13]: 1.075
Difference [2, 10]: −0.12

NCc1ccc(C(=O)O)cc1 [4-(Aminomethyl)benzoic acid]
Difference [1, 19]: −0.68
Cholesterol-free [1, 20]: 1.961
Complete [1, 21]: 1.286
Cholesterol-free media + simvastatin (0.04 μM) [2, 28]: 1.68
Complete Media [2, 29]: 1.637
Difference [2, 30]: −0.04

CN(C)C/C=C/C(=O)Nc1cc2c(Nc3ccc(F)c(Cl)c3)ncnc2cc1O[C@H]1CCOC1 [Afatinib]
Difference [1, 16]: 0.00
Cholesterol-free [1, 22]: 0.02665
Complete [1, 23]: 0.0309
Cholesterol-free media + simvastatin (0.04 μM) [2, 17]: 0.1756
Complete Media [2, 18]: 0.2197
Difference [2, 15]: 0.04

C=C[C@H]1C[N@@]2CC[C@H]1C[C@H]2[C@H](O)c1ccnc2ccc(OC)cc12 [Quinine (hydrochloride dihydrate)]
Difference [1, 16]: 0.03
Cholesterol-free media + simvastatin (0.04 μM) [2, 14]: 1.208
Difference [2, 10]: −0.15

COc1c(-c2ccc3cc(NS(C)(=O)=O)ccc3c2)cc(-n2ccc(=O)[nH]c2=O)cc1C(C)(C)C [Dasabuvir]
Cholesterol-free [1, 4]: 1.225
Complete ([1]; NCI-H292 cells, complete media): 0.8287
Difference [1, 7]: −0.40
Cholesterol-free media + simvastatin (0.04 μM) [2, 28]: 1.1
Complete Media [2, 29]: 1.064
Difference [2, 30]: −0.04

CC(C)=CCC/C(C)=C/CC/C(C)=C/CCC(=O)OC/C=C(\C)CCC=C(C)C [Gefarnate]
Cholesterol-free [1]: 1.413
Complete [1]: 0.9135
Difference [1]: −0.50
Cholesterol-free media + simvastatin (0.04 μM) [2]: 1.714
Complete Media [2]: 1.906
Difference [2]: 0.19

CC(C)C(=O)Oc1ccc(CO)cc1[C@H](CCN(C(C)C)C(C)C)c1ccccc1 [Fesoterodine]
Cholesterol-free [1, 22]: 0.8973
Complete [1, 23]: 1.535
Difference [1, 24]: 0.64
Cholesterol-free media + simvastatin (0.04 μM) [2, 25]: 1.104
Complete Media [2, 26]: 0.8265
Difference [2, 10]: −0.28

CS(=O)(=O)c1ccc([C@@H](O)[C@@H](CF)NC(=O)C(Cl)Cl)cc1 [Florfenicol]
Difference [1, 11]: −0.13
Cholesterol-free [1, 12]: 0.8542
Complete [1, 13]: 0.7262
Cholesterol-free media + simvastatin (0.04 μM) [2, 14]: 1.137
Complete Media [2, 13]: 0.997
Difference [2, 10]: −0.14

Heparin (Lithium salt)
Difference [1, 3]: −0.22
Cholesterol-free [1, 4]: 1.174
Complete ([1]; NCI-H292 cells, complete media): 0.9566
Complete Media [2, 5]: 1.136
Difference [2, 6]: 0.08

CC(C)=CCC/C(C)=C/CC/C(C)=C/CC/C=C(\C)CC/C=C(\C)CCC=C(C)C [Squalene]
Cholesterol-free [1, 22]: 1.273
Complete [1, 23]: 1.566
Difference [1, 24]: 0.29
Cholesterol-free media + simvastatin (0.04 μM) [2, 8]: 0.9877
Complete Media [2, 9]: 0.7931
Difference [2, 10]: −0.19

O=C(O)C[C@H](O)C[C@H](O)/C=C/c1c(C2CC2)nc2ccccc2c1-c1ccc(F)cc1 [Pitavastatin (Calcium)]
Difference [1, 11]: −0.07
Cholesterol-free [1, 12]: 0.4408
Complete [1, 13]: 0.3693
Cholesterol-free media + simvastatin (0.04 μM) [2, 28]: 0.4883
Complete Media [2, 29]: 0.4437
Difference [2, 30]: −0.04

Catechin
Complete ([1]; NCI-H292 cells, complete media): 0.7264
Difference [1, 27]: −0.38
Cholesterol-free media + simvastatin (0.04 μM) [2, 28]: 1.661
Difference ([2]; complete media minus cholesterol-free media + simvastatin (0.04 μM), […]): −0.02

Cc1ccnc2c1NC(=O)c1cccnc1N2C1CC1 [Nevirapine]
Cholesterol-free [1, 22]: 0.7658
Complete [1, 23]: 1.137
Difference [1, 24]: 0.37
Cholesterol-free media + simvastatin (0.04 μM) [2, 25]: 1.384
Complete Media [2, 26]: 0.9254
Difference [2, 10]: −0.46
